This is an account of results in US8933096B2, “Antimicrobial agents” (Rugers, The State University of New Jersey, priority 2010, dated 2015).

Test [1] concerns methicillin-Sensitive Staphylococcus aureus (MSSA). Kind of test: Test C: planktonic antibacterial broth microdilution assay (MIC) vs MSSA. It counts as cell-based. The conditions noted are these: 37° C., growth read after 24 to 48 hours at OD 600 nm. As for the experimental part:
(§1) Test C. Planktonic (Free-Living) Antibacterial Assay.
(§2) Planktonic antibacterial activity can be determined using a broth microdilution assay in which log-phase bacteria are grown at 37° C. in appropriate medium containing two-fold serial dilutions of a compound to yield a final concentration ranging from 256 to 0.1 μg/ml. For determination of minimal inhibitory concentration (MIC) values, bacterial growth is monitored after 24 to 48 hours by measuring optical density at 600 nm.
For orientation: In broth dilution the organism is exposed to a series of concentrations in liquid medium.

A further test deals with MRSA. The test is described as follows: Test C: planktonic antibacterial broth microdilution assay (MIC) vs MRSA. It counts as cell-based. The conditions noted are these: Staphylococcus aureus, 37° C., growth read after 24 to 48 hours at OD 600 nm. As for the experimental part: as §1, §2
In a further test the target is T1, S. aureus FtsZ GTPase (Staphylococcus aureus, UniProt P0A031).
T1 sequence (P0A031 1-390): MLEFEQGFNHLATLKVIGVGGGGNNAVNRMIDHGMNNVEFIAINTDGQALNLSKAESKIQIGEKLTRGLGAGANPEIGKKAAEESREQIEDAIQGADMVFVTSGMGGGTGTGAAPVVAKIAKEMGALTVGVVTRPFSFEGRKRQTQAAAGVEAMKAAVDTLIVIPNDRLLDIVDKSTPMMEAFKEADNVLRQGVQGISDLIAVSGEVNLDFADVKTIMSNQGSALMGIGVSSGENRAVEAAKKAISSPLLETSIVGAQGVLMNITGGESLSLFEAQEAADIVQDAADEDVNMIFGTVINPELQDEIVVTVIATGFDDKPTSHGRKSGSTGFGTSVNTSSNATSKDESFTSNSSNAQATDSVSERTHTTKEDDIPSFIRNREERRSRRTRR
The test is described as follows: Test B: FtsZ GTPase inhibition, colorimetric malachite green assay. It counts as biochemical. The note with it: 1 mM GTP, 20 mM CaCl2, 2 μM FtsZ, 60 minutes at room temperature, read-out: IC50 (compound concentration at which FtsZ GTPase activity is inhibited by 50%). From the text: Test B. Determining the FtsZ GTPase Inhibitory Activities of Compounds of the Invention.
Compound-induced inhibition of the FtsZ GTPase activity can be tested using a colorimetric assay in which the inorganic phosphate (Pi) released upon FtsZ-catalyzed hydrolysis of GTP reacts with malachite green and molybdate under acidic conditions to form a ternary complex that absorbs light at 650 nm, thus enabling quantitation of Pi levels by recording the absorbance at 650 nm (A650). All reactions are conducted in triplicate in 96-well microtiter plates. Differing concentrations (ranging from 0 to 1.5 mM) of compound are combined with 1 mM GTP and 20 mM CaCl2, the latter being used because FtsZ GTPase activity requires the presence of Ca2+ ions. The reactions will be initiated by addition of 2 μM FtsZ and allowed to incubate for 60 minutes at room temperature. Following incubation, the reactions will be stopped by adding 80 μl of an acidic malachite green-molybdate solution containing 0.3 mg/ml malachite green oxalate, 2 mg/ml sodium molybdate, 0.5 mg/ml Triton X-100, and 0.7 N HCl. […] Ten minutes following addition of the acidic malachite green-molybdate solution, the A650 value for each reaction are recorded using a microtiter plate reader. […] This standard curve is then fit by linear regression analysis to yield the quantitative relationship between A650 and Pi concentration. […]

For orientation: MIC means the smallest concentration in the dilution series that meets the test's criterion for growth inhibition. A high value points to weaker potency. Consider `COc1cc2cc(-c3cc(-c4ccccc4)cc(-c4ccccc4)c3)nc(N=C(N)N)c2cc1OC` [Example 3], for which, in test [1], the MIC is at most 32 µg/mL.
`COc1cc2cc(-c3cccc(-c4ccccc4)c3)[n+](C)c(N(C)C)c2cc1OC.[I-]` [Example 5] registered an MIC in test [1] of at most 8 µg/mL.
Consider `COc1cc2cc(-c3cccc(-c4ccccc4)c3)nc(N=C(N)N)c2cc1OC` [Example 7], for which the MIC in test [1] is at most 8 µg/mL.
Molecule `COc1cc2cc(-c3cccc(-c4ccccc4)c3)nc(NCCN)c2cc1OC` [Example 9] came in with an MIC in test [1] of at most 8 µg/mL.
`COc1cc2cc(-c3cccc(C(C)(C)C)c3)nc(CN=C(N)N)c2cc1OC` [Example 13]: the MIC (in test [1]; with MRSA) was at most 8 µg/mL each time.
For the molecule `COc1cc(-c2cc3cc(OC)c(OC)c(OC)c3c(C)[n+]2C)cc(-c2cccc(-c3ccc(F)cc3)c2)c1OC.[I-]` [Example 15], the MIC (in test [1]; with MRSA) was at most 8 µg/mL each time.
Turning to `COc1cc(-c2cc3cc(OC)c(OC)c(OC)c3c(C)[n+]2C)cc(-c2cc(-c3ccc(F)cc3)cc(-c3ccc(F)cc3)c2)c1OC.[I-]` [Example 19], the IC50 at S. aureus FtsZ GTPase is under 100 µM. Besides, the MIC (in test [1]; with MRSA) was at most 8 µg/mL each time.
In the case of `COc1cc(-c2cc3ccccc3c[n+]2C)cc(-c2cccc(-c3ccc(F)cc3)c2)c1OC.[I-]` [Example 22], at S. aureus FtsZ GTPase, the IC50 was under 100 µM. Also, the MIC in test [1] was at most 8 µg/mL.
Molecule `COc1cc2cc(-c3cccc(C(C)(C)C)c3)nc(C/N=C(/C)N)c2cc1OC` [Example 23] displayed an MIC in test [1] of at most 8 µg/mL.
